{
  "source": "patent US20160220573A1",
  "about": "“COMBINATION THERAPIES FOR TREATING CANCERS” (Gilead Sciences, Inc., priority 2015, published 2016)",
  "test_system": "CLL cells",
  "test": "Human CLL Apoptosis Assay",
  "assay_type": "cell-based",
  "settings": "without HS-5 co-culture",
  "experimental": "Peripheral blood mononuclear cells (PBMCs) were isolated from primary chronic lymphocytic leukemia (CLL) patients and cultured for 3-5 hours in Lymphocyte Growth Medium (LGM, RPMI 1640, 1 mM Sodium Pyruvate, 10 mM HEPES, pH 7.4, 100 U/mL Penicillin/100 μg/mL Streptomycin, 55 μM β-Mercaptoethanl, 2 mM GlutaMAX, and 10% FBS) at 37° C. with 5% CO2. Cells were then centrifuged at room temperature for 10 minutes and resuspended in an appropriate volume of LGM for plating (maximum cell density=3.12×10^6/ml). Final assay wells were set up in U-bottom 96-well tissue culture plates with HS-5 co-culture (plates were coated with 3×10^4 HS-5 cells in 100 μl overnight at 37° C. prior to the assay) or no co-culture.\nCell suspensions (80 μL, 2.5×10^5-9.4×10^4) were added to the plate and incubated for 1 hour prior to stimulation with αIgM/αIgG (7.8 μg/well) and αCD40 (4 μg/well). Cells were incubated with compounds for about 66 hours at 37° C. After incubation, the cells were transferred to deeper plates and washed once with 500 μL of 1×PBS^+/+. Cells were resuspended in Invitrogen's aqua Live/Dead reagent according to manufacturer's directions and incubated 30 minutes on ice. Aqua Live/Dead was quenched with an equal volume of PBS^+/+ with 4% FBS (FACS buffer). Cells were centrifuged and labeled with αCD5^−PE, αCD19-BV421 and AnnexinV-APC in a total volume of […] and incubated 30 minutes on ice. After labeling, cells were rinsed twice in FACS buffer and then fixed with BD Fixation buffer for 30 minutes on ice. Cells were rinsed twice with FACS buffer and analyzed.\nFor the apoptosis analysis, flow cytometric sampling of 5000-20,000 total events were collected on a BD FACS Canto II instrument using a high throughput screen (HTS) autosampler for analysis of apoptosis. CD5^+/CD19^+ cells were identified and subsequently gated for AnnexinV^+/LiveDead and AnnexinV^+/LiveDead^+ populations.\nFlow cytometric data were extracted to a flow cytometry standard (fcs) file. Average percentages of AnnexinV^+ cells were determined for the positive control and negative wells (no compound). The percentage of AnnexinV^+ cells represented the percentage or levels of apoptosis. Similar results were obtained for CLL cells with HS-5 co-culture.",
  "data": [
    {"smiles": "c1cn2cc(-c3ccc4cn[nH]c4c3)nc(Nc3ccc(N4CCOCC4)cc3)c2n1", "note": "[Compound A1, 6-(1H-indazol-6-yl)-N-(4-morpholinophenyl)imidazo[1,2-a]pyrazin-8-amine]", "values": [
      {"measurement": "Percentage of the AnnexinV^+ cells from CLL patients", "setting": "Sample 1, 0 nM Compound B1, 30 nM Compound A1", "value": 12, "unit": "%"},
      {"measurement": "Percentage of the AnnexinV^+ cells from CLL patients", "setting": "Sample 1, 0 nM Compound B1, 100 nM Compound A1", "value": 12, "unit": "%"},
      {"measurement": "Percentage of the AnnexinV^+ cells from CLL patients", "setting": "Sample 1, 0 nM Compound B1, 300 nM Compound A1", "value": 16, "unit": "%"},
      {"measurement": "Percentage of the AnnexinV^+ cells from CLL patients", "setting": "Sample 2, 0 nM Compound B1, 30 nM Compound A1", "value": 9, "unit": "%"},
      {"measurement": "Percentage of the AnnexinV^+ cells from CLL patients", "setting": "Sample 2, 0 nM Compound B1, 100 nM Compound A1", "value": 12, "unit": "%"},
      {"measurement": "Percentage of the AnnexinV^+ cells from CLL patients", "setting": "Sample 2, 0 nM Compound B1, 300 nM Compound A1", "value": 20, "unit": "%"},
      {"measurement": "Percentage of the AnnexinV^+ cells from CLL patients", "setting": "Sample 3, 0 nM Compound B1, 30 nM Compound A1", "value": 13, "unit": "%"},
      {"measurement": "Percentage of the AnnexinV^+ cells from CLL patients", "setting": "Sample 3, 0 nM Compound B1, 100 nM Compound A1", "value": 15, "unit": "%"},
      {"measurement": "Percentage of the AnnexinV^+ cells from CLL patients", "setting": "Sample 3, 0 nM Compound B1, 300 nM Compound A1", "value": 18, "unit": "%"}
    ]},
    {"smiles": "CC1(C)CCC(CN2CCN(c3ccc(C(=O)NS(=O)(=O)c4ccc(NCC5CCOCC5)c([N+](=O)[O-])c4)c(Oc4cnc5[nH]ccc5c4)c3)CC2)=C(c2ccc(Cl)cc2)C1", "note": "[Compound B1]", "values": [
      {"measurement": "Percentage of the AnnexinV^+ cells from CLL patients", "setting": "Sample 1, 0.8 nM Compound B1, 0 nM Compound A1", "value": 13, "unit": "%"},
      {"measurement": "Percentage of the AnnexinV^+ cells from CLL patients", "setting": "Sample 1, 1.6 nM Compound B1, 0 nM Compound A1", "value": 15, "unit": "%"},
      {"measurement": "Percentage of the AnnexinV^+ cells from CLL patients", "setting": "Sample 1, 3.1 nM Compound B1, 0 nM Compound A1", "value": 15, "unit": "%"},
      {"measurement": "Percentage of the AnnexinV^+ cells from CLL patients", "setting": "Sample 1, 6.3 nM Compound B1, 0 nM Compound A1", "value": 16, "unit": "%"},
      {"measurement": "Percentage of the AnnexinV^+ cells from CLL patients", "setting": "Sample 1, 12.5 nM Compound B1, 0 nM Compound A1", "value": 19, "unit": "%"},
      {"measurement": "Percentage of the AnnexinV^+ cells from CLL patients", "setting": "Sample 1, 25 nM Compound B1, 0 nM Compound A1", "value": 24, "unit": "%"},
      {"measurement": "Percentage of the AnnexinV^+ cells from CLL patients", "setting": "Sample 1, 50 nM Compound B1, 0 nM Compound A1", "value": 31, "unit": "%"},
      {"measurement": "Percentage of the AnnexinV^+ cells from CLL patients", "setting": "Sample 1, 100 nM Compound B1, 0 nM Compound A1", "value": 36, "unit": "%"},
      {"measurement": "Percentage of the AnnexinV^+ cells from CLL patients", "setting": "Sample 1, 200 nM Compound B1, 0 nM Compound A1", "value": 46, "unit": "%"},
      {"measurement": "Percentage of the AnnexinV^+ cells from CLL patients", "setting": "Sample 2, 0.8 nM Compound B1, 0 nM Compound A1", "value": 10, "unit": "%"},
      {"measurement": "Percentage of the AnnexinV^+ cells from CLL patients", "setting": "Sample 2, 1.6 nM Compound B1, 0 nM Compound A1", "value": 18, "unit": "%"},
      {"measurement": "Percentage of the AnnexinV^+ cells from CLL patients", "setting": "Sample 2, 3.1 nM Compound B1, 0 nM Compound A1", "value": 35, "unit": "%"},
      {"measurement": "Percentage of the AnnexinV^+ cells from CLL patients", "setting": "Sample 2, 6.3 nM Compound B1, 0 nM Compound A1", "value": 55, "unit": "%"},
      {"measurement": "Percentage of the AnnexinV^+ cells from CLL patients", "setting": "Sample 2, 12.5 nM Compound B1, 0 nM Compound A1", "value": 76, "unit": "%"},
      {"measurement": "Percentage of the AnnexinV^+ cells from CLL patients", "setting": "Sample 2, 25 nM Compound B1, 0 nM Compound A1", "value": 89, "unit": "%"},
      {"measurement": "Percentage of the AnnexinV^+ cells from CLL patients", "setting": "Sample 2, 50 nM Compound B1, 0 nM Compound A1", "value": 93, "unit": "%"},
      {"measurement": "Percentage of the AnnexinV^+ cells from CLL patients", "setting": "Sample 2, 100 nM Compound B1, 0 nM Compound A1", "value": 95, "unit": "%"},
      {"measurement": "Percentage of the AnnexinV^+ cells from CLL patients", "setting": "Sample 2, 200 nM Compound B1, 0 nM Compound A1", "value": 97, "unit": "%"},
      {"measurement": "Percentage of the AnnexinV^+ cells from CLL patients", "setting": "Sample 3, 0.8 nM Compound B1, 0 nM Compound A1", "value": 16, "unit": "%"},
      {"measurement": "Percentage of the AnnexinV^+ cells from CLL patients", "setting": "Sample 3, 1.6 nM Compound B1, 0 nM Compound A1", "value": 21, "unit": "%"},
      {"measurement": "Percentage of the AnnexinV^+ cells from CLL patients", "setting": "Sample 3, 3.1 nM Compound B1, 0 nM Compound A1", "value": 33, "unit": "%"},
      {"measurement": "Percentage of the AnnexinV^+ cells from CLL patients", "setting": "Sample 3, 6.3 nM Compound B1, 0 nM Compound A1", "value": 50, "unit": "%"},
      {"measurement": "Percentage of the AnnexinV^+ cells from CLL patients", "setting": "Sample 3, 12.5 nM Compound B1, 0 nM Compound A1", "value": 69, "unit": "%"},
      {"measurement": "Percentage of the AnnexinV^+ cells from CLL patients", "setting": "Sample 3, 25 nM Compound B1, 0 nM Compound A1", "value": 89, "unit": "%"},
      {"measurement": "Percentage of the AnnexinV^+ cells from CLL patients", "setting": "Sample 3, 50 nM Compound B1, 0 nM Compound A1", "value": 97, "unit": "%"},
      {"measurement": "Percentage of the AnnexinV^+ cells from CLL patients", "setting": "Sample 3, 100 nM Compound B1, 0 nM Compound A1", "value": 99, "unit": "%"},
      {"measurement": "Percentage of the AnnexinV^+ cells from CLL patients", "setting": "Sample 3, 200 nM Compound B1, 0 nM Compound A1", "value": 100, "unit": "%"}
    ]}
  ]
}
